Laboratory results published in PubChem BioAssay (NCI).
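Assay format: 96-well plates, 48-hour exposure. At the GI50, growth is halved. Definition used: TGI = concentration required for complete inhibition of growth.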

Columns and labels:
Experiment in all cases: DTP human tumour cell line panel, 48 h
A549 NSCLC = test system: A549 NSCLC
HOP-62 NSCLC = test system: HOP-62 NSCLC
SK-MEL-2 melanoma = test system: SK-MEL-2 melanoma
SF-539 CNS = test system: SF-539 CNS
U251 CNS = test system: U251 CNS
RXF 393 renal = test system: RXF 393 renal
NCI-H460 lung = test system: NCI-H460 lung
SK-MEL-5 melanoma = test system: SK-MEL-5 melanoma
786-0 renal = test system: 786-0 renal
UACC-257 melanoma = test system: UACC-257 melanoma
MALME-3M melanoma = test system: MALME-3M melanoma

C=CCNC(=S)/N=C/C(C(=O)Nc1ccccc1C)=C(\C)O
TGI (A549 NSCLC): > 100 µM | TGI (HOP-62 NSCLC): > 100 µM | TGI (SK-MEL-2 melanoma): > 100 µM | TGI (SF-539 CNS): > 100 µM | TGI (U251 CNS): > 100 µM | TGI (RXF 393 renal): > 100 µM | TGI (NCI-H460 lung): > 100 µM | TGI (SK-MEL-5 melanoma): > 100 µM | TGI (786-0 renal): > 100 µM | TGI (UACC-257 melanoma): > 100 µM

CC(C)C(NC(=O)C(Cc1ccccc1)NC(=O)[C@H]1CCC[C@H]1NC(=O)C(Cc1ccc(OC(C)(C)C)cc1)NC(=O)OC(C)(C)C)C(N)=O (stereo not given in full)
TGI (A549 NSCLC): 45.5 µM | TGI (HOP-62 NSCLC): 32.5 µM | TGI (SK-MEL-2 melanoma): 41.6 µM | TGI (SF-539 CNS): 33.8 µM | TGI (U251 CNS): 28.3 µM | TGI (RXF 393 renal): > 100 µM | TGI (NCI-H460 lung): 38.8 µM | TGI (SK-MEL-5 melanoma): 21.5 µM | TGI (786-0 renal): > 100 µM

COc1ccc(-n2cnc3c(NC(Cc4ccccc4)C(=O)O)ncnc32)cc1 (stereo not given)
TGI (A549 NSCLC): > 100 µM | TGI (HOP-62 NSCLC): > 100 µM | TGI (SK-MEL-2 melanoma): > 100 µM | TGI (U251 CNS): > 100 µM | TGI (NCI-H460 lung): > 100 µM | TGI (SK-MEL-5 melanoma): > 100 µM | TGI (786-0 renal): > 100 µM | TGI (UACC-257 melanoma): > 100 µM

COc1ccc(-c2n/c(=C\c3c(O)[nH]c4ccccc34)cc3c2=Nc2ccccc2-3)cc1
GI50 (A549 NSCLC): 1790 nM | TGI (A549 NSCLC): 4.31 µM | GI50 (HOP-62 NSCLC): 1630 nM | TGI (HOP-62 NSCLC): 3.23 µM | GI50 (SK-MEL-2 melanoma): 795 nM | TGI (SK-MEL-2 melanoma): 2.35 µM | GI50 (SF-539 CNS): 1860 nM | TGI (SF-539 CNS): 3.31 µM | GI50 (U251 CNS): 1450 nM | TGI (U251 CNS): 2.76 µM | GI50 (RXF 393 renal): 1260 nM | TGI (RXF 393 renal): 2.67 µM | GI50 (NCI-H460 lung): 1680 nM | TGI (NCI-H460 lung): 3.28 µM | GI50 (SK-MEL-5 melanoma): 1360 nM | TGI (SK-MEL-5 melanoma): 2.64 µM | GI50 (UACC-257 melanoma): 2190 nM | TGI (UACC-257 melanoma): 6.97 µM

CCOc1cc2c(cc1O)C(N)C[C@@H]1[C@@H]2CC[C@]2(C)[C@@H](O)CC[C@@H]12 (stereo not given in full)
TGI (HOP-62 NSCLC): > 100 µM | TGI (SK-MEL-2 melanoma): > 100 µM | TGI (U251 CNS): > 100 µM | TGI (RXF 393 renal): > 100 µM | TGI (NCI-H460 lung): > 100 µM | TGI (SK-MEL-5 melanoma): > 100 µM | TGI (786-0 renal): > 100 µM | TGI (UACC-257 melanoma): > 100 µM

O=C(Cc1ccccc1)NN1C(=O)/C(=C\c2ccccc2O)SC1=Nc1ccccc1
TGI (A549 NSCLC): > 100 µM | TGI (HOP-62 NSCLC): > 100 µM | TGI (SK-MEL-2 melanoma): > 100 µM | TGI (SF-539 CNS): > 100 µM | TGI (U251 CNS): > 100 µM | TGI (RXF 393 renal): > 100 µM | TGI (NCI-H460 lung): > 100 µM | TGI (SK-MEL-5 melanoma): > 100 µM | TGI (786-0 renal): > 100 µM | TGI (UACC-257 melanoma): > 100 µM

Cc1csc(-n2c(C)nc3cc(Cl)ccc3c2=O)n1
TGI (A549 NSCLC): > 100 µM | TGI (HOP-62 NSCLC): > 100 µM | TGI (SK-MEL-2 melanoma): > 100 µM | TGI (SF-539 CNS): > 100 µM | TGI (U251 CNS): > 100 µM | TGI (RXF 393 renal): > 100 µM | TGI (NCI-H460 lung): > 100 µM | TGI (SK-MEL-5 melanoma): > 100 µM | TGI (786-0 renal): > 100 µM | TGI (UACC-257 melanoma): > 100 µM

CN(C)CN(C)c1nc(N(C)C)nc(N(C)CN(C)C)n1
TGI (A549 NSCLC): > 100 µM | TGI (HOP-62 NSCLC): > 100 µM | TGI (SK-MEL-2 melanoma): 42.6 µM | TGI (SF-539 CNS): > 100 µM | TGI (U251 CNS): > 100 µM | TGI (RXF 393 renal): 38.9 µM | TGI (NCI-H460 lung): > 100 µM | TGI (SK-MEL-5 melanoma): > 100 µM | TGI (786-0 renal): > 100 µM | TGI (UACC-257 melanoma): > 100 µM

O=C1CC(c2ccccc2)S(=O)c2ccccc2N1 (stereo not given)
TGI (A549 NSCLC): > 100 µM | TGI (MALME-3M melanoma): > 100 µM | TGI (HOP-62 NSCLC): > 100 µM | TGI (U251 CNS): > 100 µM | TGI (NCI-H460 lung): > 100 µM | TGI (SK-MEL-5 melanoma): > 100 µM | TGI (786-0 renal): > 100 µM | TGI (UACC-257 melanoma): > 100 µM

C(#Cc1ccccc1)SC1=C(c2ccccc2)S/C(=C(\SC#Cc2ccccc2)c2ccccc2)S1
TGI (A549 NSCLC): > 100 µM | TGI (HOP-62 NSCLC): > 100 µM | TGI (SF-539 CNS): > 100 µM | TGI (U251 CNS): > 100 µM | TGI (NCI-H460 lung): > 100 µM | TGI (SK-MEL-5 melanoma): > 100 µM | TGI (786-0 renal): > 100 µM | TGI (UACC-257 melanoma): > 100 µM

COc1ccc(CNc2nc3ccccc3nc2C(=O)O)cc1
TGI (A549 NSCLC): > 100 µM | TGI (HOP-62 NSCLC): > 100 µM | TGI (SK-MEL-2 melanoma): > 100 µM | TGI (SF-539 CNS): > 100 µM | TGI (U251 CNS): > 100 µM | TGI (RXF 393 renal): > 100 µM | TGI (NCI-H460 lung): > 100 µM | TGI (SK-MEL-5 melanoma): > 100 µM | TGI (786-0 renal): > 100 µM | TGI (UACC-257 melanoma): > 100 µM

NN/C(=N\S(=O)(=O)c1ccc(S(=O)(=O)c2ccccc2)s1)Nc1ccc(Cl)cc1
TGI (A549 NSCLC): > 100 µM | TGI (HOP-62 NSCLC): > 100 µM | TGI (SK-MEL-2 melanoma): 53.8 µM | TGI (SF-539 CNS): > 100 µM | TGI (U251 CNS): > 100 µM | TGI (RXF 393 renal): 47.6 µM | TGI (NCI-H460 lung): 65.7 µM | TGI (SK-MEL-5 melanoma): 46.2 µM | TGI (786-0 renal): 54.2 µM | TGI (UACC-257 melanoma): 67.5 µM

CC(=O)OCC1OC(n2c(-c3ccccc3)c(N=Nc3ccc(C)cc3)c(C)c(C#N)c2=S)C(OC(C)=O)C(OC(C)=O)C1OC(C)=O (stereo not given)
TGI (A549 NSCLC): 47 µM | TGI (HOP-62 NSCLC): 50.1 µM | TGI (SK-MEL-2 melanoma): 40.9 µM | TGI (U251 CNS): 33.4 µM | TGI (RXF 393 renal): 50.7 µM | TGI (NCI-H460 lung): > 100 µM | TGI (786-0 renal): 12.5 µM | TGI (UACC-257 melanoma): > 100 µM

CC(C)(C)[Si](C)(C)OC[C@H](/C=C\CCCC(=O)O)NC1(c2ccccc2)c2ccccc2-c2ccccc21
TGI (A549 NSCLC): > 100 µM | TGI (HOP-62 NSCLC): 42.3 µM | TGI (SK-MEL-2 melanoma): 26.7 µM | TGI (SF-539 CNS): 31.3 µM | TGI (U251 CNS): 30.6 µM | TGI (RXF 393 renal): 25 µM | TGI (NCI-H460 lung): 59.8 µM | TGI (SK-MEL-5 melanoma): 23.3 µM | TGI (786-0 renal): 30.3 µM | TGI (UACC-257 melanoma): 43.4 µM

COC(=O)c1cc(/C=C\c2cc(OC)ccc2OC)ccc1OC
TGI (A549 NSCLC): > 100 µM | TGI (HOP-62 NSCLC): 77.1 µM | TGI (SK-MEL-2 melanoma): 74.2 µM | TGI (SF-539 CNS): > 100 µM | TGI (U251 CNS): > 100 µM | TGI (NCI-H460 lung): > 100 µM | TGI (SK-MEL-5 melanoma): 34.5 µM | TGI (786-0 renal): > 100 µM | TGI (UACC-257 melanoma): 96.5 µM

COCCN1C(=O)C2c3[nH]c4ccccc4c3C3CCC(C(C)(C)C)CC3C2C1=O (stereo not given)
TGI (A549 NSCLC): 39.5 µM | TGI (HOP-62 NSCLC): 37.4 µM | TGI (SF-539 CNS): 35.6 µM | TGI (U251 CNS): 28.9 µM | TGI (RXF 393 renal): 43.1 µM | TGI (NCI-H460 lung): 28 µM | TGI (SK-MEL-5 melanoma): 30.9 µM | TGI (786-0 renal): 31.5 µM | TGI (UACC-257 melanoma): 31.8 µM
